Results reported in the NIST ThermoML archive (doi:10.1016/j.jct.2010.11.017).

Experiment: wn = mass fraction of the nth substance listed
Conditions: 101 kPa, Liquid; for viscosity: Capillary tube (Ostwald / Ubbelohde) method; for speed of sound: Frequency=3 MHz, Linear variable-path acoustic interferometer; for mass density: Pycnometric method

O=C[C@H](O)[C@@H](O)[C@H](O)[C@H](O)CO [D-glucose] + O
Conditions	mass density [kg/m3]	speed of sound [m/s]	viscosity [mPa·s]
293.15 K, w1 = 0.05	1016.28	–	1.176
293.15 K, w1 = 0.1	1034.79	1521.4	1.357
293.15 K, w1 = 0.15	1053.29	1532.4	1.541
293.15 K, w1 = 0.2	1072.41	1543.2	1.877
298.15 K, w1 = 0.05	1014.69	1514.3	0.9767
298.15 K, w1 = 0.1	1033.15	1530.6	1.12
298.15 K, w1 = 0.15	1051.61	1542.5	1.316
298.15 K, w1 = 0.2	1070.31	1553.3	1.67
303.15 K, w1 = 0.05	1013.08	1525.1	0.8605
303.15 K, w1 = 0.1	1031.5	1540.3	0.9907
303.15 K, w1 = 0.15	1049.92	1551.5	1.147
303.15 K, w1 = 0.2	1068.17	1563.1	1.491
308.15 K, w1 = 0.05	1011.47	1535.7	0.7697
308.15 K, w1 = 0.1	1029.84	1550.2	0.8844
308.15 K, w1 = 0.15	1048.37	1560.5	1.018
308.15 K, w1 = 0.2	1065.97	1573.5	1.345
313.15 K, w1 = 0.05	1009.85	1545.6	0.6945
313.15 K, w1 = 0.1	1028.17	1559.9	0.7901
313.15 K, w1 = 0.15	1046.62	1569.6	0.8925
313.15 K, w1 = 0.2	1063.76	1582.2	1.21
318.15 K, w1 = 0.05	–	1554.5	0.6334
318.15 K, w1 = 0.1	1026.48	1568.4	0.7223
318.15 K, w1 = 0.15	1044.93	1577.2	0.8097
318.15 K, w1 = 0.2	1061.52	1591.2	1.112
